Values quoted from earlier work, collected in patent US20120034273A1, “EXTRUDATE HAVING SPICULAR ACTIVE SUBSTANCES” (Bayer Animal Health GmbH, priority 2008, published 2012).

Details: stated in words, no test described

## O=C(C1CCCCC1)N1CC(=O)N2CCc3ccccc3C2C1 (stereo not shown) [praziquantel]
  solubility in water: poorly soluble in water
